# Experiments:
# [1] = target: D(1A) dopamine receptor (Homo sapiens, UniProt P21728)
# [2] = target: T1, Alpha-1A adrenergic receptor (Homo sapiens, UniProt P35348)
# T1 sequence (P35348 whole entry): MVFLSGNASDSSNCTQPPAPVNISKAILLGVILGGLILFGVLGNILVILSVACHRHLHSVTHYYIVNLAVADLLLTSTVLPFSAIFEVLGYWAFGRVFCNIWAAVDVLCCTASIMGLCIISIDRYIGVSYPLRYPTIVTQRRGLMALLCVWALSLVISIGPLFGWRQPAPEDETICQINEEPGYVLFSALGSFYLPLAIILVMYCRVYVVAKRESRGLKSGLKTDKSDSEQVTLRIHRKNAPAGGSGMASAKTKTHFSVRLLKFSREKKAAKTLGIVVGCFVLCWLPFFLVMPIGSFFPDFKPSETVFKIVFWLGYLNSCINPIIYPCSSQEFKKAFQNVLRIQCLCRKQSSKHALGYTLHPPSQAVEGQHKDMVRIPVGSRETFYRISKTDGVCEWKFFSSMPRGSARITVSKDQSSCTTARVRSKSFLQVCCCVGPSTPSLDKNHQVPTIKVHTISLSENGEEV
# [3] = target: T2, Bile acid receptor (Homo sapiens, UniProt Q96RI1); format: functional
# T2 sequence (Q96RI1 whole entry): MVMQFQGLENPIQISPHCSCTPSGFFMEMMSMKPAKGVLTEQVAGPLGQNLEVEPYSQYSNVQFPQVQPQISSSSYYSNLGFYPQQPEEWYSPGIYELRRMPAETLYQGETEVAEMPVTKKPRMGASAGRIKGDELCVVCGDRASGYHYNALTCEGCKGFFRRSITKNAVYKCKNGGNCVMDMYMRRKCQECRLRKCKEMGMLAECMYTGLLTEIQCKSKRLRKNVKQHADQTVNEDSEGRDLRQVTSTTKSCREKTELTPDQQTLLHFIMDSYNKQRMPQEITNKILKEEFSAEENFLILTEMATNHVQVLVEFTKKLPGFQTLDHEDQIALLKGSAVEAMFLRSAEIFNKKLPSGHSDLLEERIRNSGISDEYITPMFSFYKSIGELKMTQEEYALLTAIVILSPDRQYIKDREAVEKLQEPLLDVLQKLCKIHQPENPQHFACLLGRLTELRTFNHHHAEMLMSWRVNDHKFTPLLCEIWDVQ
# [4] = target: Beta-1 adrenergic receptor (Homo sapiens, UniProt P08588); format: functional, cell-based
# [5] = target: T3, Oxysterols receptor LXR-beta (Homo sapiens, UniProt P55055); format: functional
# T3 sequence (P55055 whole entry): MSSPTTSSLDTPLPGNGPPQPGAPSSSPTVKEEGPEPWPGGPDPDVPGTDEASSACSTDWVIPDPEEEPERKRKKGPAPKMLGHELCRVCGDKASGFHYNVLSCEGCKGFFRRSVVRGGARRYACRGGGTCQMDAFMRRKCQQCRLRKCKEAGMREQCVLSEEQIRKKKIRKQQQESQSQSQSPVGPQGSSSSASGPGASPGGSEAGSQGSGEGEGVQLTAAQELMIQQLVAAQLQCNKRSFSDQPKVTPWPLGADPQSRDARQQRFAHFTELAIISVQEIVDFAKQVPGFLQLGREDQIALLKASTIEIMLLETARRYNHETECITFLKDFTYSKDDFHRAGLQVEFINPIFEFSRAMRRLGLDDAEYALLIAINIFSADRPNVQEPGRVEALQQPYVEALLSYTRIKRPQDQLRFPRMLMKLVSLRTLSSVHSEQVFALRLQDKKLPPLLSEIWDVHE
# [6] = target: T4, Nuclear receptor subfamily 1 group I member 3 (Homo sapiens, UniProt Q14994); format: functional
# T4 sequence (Q14994 whole entry): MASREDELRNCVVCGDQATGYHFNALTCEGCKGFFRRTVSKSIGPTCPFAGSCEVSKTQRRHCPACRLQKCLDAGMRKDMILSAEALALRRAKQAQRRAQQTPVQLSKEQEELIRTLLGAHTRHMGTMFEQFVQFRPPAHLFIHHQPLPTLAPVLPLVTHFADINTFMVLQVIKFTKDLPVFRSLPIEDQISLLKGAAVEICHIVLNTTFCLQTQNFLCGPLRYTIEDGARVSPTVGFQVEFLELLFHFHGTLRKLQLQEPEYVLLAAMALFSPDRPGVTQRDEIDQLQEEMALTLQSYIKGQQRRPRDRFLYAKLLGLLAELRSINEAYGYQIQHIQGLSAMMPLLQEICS
# [7] = target: T5, Androgen receptor (Rattus norvegicus, UniProt P15207)
# T5 sequence (P15207 whole entry): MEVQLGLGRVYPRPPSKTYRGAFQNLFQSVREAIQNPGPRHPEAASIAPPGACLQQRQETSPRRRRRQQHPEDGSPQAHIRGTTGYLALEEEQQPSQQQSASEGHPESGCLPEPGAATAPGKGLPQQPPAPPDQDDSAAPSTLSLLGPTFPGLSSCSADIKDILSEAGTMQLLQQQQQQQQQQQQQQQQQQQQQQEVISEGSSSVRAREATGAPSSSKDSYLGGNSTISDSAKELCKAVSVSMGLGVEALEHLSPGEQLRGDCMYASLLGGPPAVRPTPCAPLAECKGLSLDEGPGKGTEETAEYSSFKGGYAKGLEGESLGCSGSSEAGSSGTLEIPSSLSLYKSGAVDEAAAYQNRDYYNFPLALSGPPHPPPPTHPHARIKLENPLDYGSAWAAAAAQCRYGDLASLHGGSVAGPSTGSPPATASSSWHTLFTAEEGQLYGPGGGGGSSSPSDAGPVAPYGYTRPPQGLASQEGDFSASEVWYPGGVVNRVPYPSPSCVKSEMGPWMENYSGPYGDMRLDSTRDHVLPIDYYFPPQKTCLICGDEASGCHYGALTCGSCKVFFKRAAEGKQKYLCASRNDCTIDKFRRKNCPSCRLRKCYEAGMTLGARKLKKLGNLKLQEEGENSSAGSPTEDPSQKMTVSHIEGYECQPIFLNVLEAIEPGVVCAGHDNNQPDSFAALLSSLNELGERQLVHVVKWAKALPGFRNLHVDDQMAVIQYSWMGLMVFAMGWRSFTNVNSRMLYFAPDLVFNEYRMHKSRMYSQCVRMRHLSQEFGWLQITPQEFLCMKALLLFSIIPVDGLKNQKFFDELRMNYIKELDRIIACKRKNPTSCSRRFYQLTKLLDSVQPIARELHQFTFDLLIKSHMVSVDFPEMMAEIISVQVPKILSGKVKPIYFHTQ
# [8] = target: 5-hydroxytryptamine receptor 5A (Homo sapiens, UniProt P47898)
# [9] = target: D(1B) dopamine receptor (Homo sapiens, UniProt P21918)
# [10] = target: Rod cGMP-specific 3',5'-cyclic phosphodiesterase subunit alpha (Homo sapiens, UniProt P16499); format: functional
# Further: assay procedure not described here.
# D(1A) dopamine receptor, sequence (P21728 whole entry): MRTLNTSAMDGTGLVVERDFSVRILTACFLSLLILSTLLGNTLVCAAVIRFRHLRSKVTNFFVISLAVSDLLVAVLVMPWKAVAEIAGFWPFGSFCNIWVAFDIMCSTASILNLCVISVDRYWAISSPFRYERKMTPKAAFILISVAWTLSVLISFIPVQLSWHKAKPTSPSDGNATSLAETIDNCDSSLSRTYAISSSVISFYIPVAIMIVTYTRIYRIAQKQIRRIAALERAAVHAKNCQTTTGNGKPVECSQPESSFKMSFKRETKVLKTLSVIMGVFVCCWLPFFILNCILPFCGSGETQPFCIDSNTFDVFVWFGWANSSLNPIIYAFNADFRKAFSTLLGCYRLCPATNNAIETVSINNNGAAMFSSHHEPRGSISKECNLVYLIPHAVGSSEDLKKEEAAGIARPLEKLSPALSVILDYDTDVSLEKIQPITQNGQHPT
# Beta-1 adrenergic receptor, sequence (P08588 whole entry): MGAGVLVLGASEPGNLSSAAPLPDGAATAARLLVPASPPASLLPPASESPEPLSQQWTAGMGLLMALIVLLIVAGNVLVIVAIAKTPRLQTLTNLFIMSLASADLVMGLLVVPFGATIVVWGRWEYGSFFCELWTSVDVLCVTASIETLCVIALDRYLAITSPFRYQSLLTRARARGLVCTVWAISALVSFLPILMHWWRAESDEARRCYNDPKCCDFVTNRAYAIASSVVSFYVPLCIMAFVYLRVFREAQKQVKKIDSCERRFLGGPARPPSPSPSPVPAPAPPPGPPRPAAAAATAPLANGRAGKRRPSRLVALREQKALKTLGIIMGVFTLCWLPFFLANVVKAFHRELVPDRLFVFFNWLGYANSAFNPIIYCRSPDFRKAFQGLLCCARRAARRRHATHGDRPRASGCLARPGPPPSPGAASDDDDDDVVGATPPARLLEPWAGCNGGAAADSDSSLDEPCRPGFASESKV
# 5-hydroxytryptamine receptor 5A, sequence (P47898 whole entry): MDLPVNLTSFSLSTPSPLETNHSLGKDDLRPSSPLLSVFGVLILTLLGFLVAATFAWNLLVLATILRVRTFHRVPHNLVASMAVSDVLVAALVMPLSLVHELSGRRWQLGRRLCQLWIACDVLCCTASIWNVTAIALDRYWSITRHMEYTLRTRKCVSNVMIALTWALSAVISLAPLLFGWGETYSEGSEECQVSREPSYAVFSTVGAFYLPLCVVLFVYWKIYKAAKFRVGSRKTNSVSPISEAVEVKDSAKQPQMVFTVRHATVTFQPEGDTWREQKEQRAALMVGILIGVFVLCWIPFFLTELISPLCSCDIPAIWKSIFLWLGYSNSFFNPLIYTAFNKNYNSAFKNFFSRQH
# D(1B) dopamine receptor, sequence (P21918 whole entry): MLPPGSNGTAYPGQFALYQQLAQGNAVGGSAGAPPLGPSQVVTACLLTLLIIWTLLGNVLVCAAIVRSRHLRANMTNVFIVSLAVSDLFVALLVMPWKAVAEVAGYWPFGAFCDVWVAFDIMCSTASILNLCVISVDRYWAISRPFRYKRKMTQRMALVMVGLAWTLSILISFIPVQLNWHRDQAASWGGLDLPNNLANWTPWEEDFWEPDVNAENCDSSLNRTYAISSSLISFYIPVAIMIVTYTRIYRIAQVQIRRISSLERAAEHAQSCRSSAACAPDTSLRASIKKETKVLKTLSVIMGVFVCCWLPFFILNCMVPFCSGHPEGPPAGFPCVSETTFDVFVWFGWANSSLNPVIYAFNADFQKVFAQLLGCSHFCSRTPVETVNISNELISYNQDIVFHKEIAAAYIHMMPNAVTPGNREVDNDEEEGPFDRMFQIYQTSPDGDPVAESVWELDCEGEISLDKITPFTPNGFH
# Rod cGMP-specific 3',5'-cyclic phosphodiesterase subunit alpha, sequence (P16499 whole entry): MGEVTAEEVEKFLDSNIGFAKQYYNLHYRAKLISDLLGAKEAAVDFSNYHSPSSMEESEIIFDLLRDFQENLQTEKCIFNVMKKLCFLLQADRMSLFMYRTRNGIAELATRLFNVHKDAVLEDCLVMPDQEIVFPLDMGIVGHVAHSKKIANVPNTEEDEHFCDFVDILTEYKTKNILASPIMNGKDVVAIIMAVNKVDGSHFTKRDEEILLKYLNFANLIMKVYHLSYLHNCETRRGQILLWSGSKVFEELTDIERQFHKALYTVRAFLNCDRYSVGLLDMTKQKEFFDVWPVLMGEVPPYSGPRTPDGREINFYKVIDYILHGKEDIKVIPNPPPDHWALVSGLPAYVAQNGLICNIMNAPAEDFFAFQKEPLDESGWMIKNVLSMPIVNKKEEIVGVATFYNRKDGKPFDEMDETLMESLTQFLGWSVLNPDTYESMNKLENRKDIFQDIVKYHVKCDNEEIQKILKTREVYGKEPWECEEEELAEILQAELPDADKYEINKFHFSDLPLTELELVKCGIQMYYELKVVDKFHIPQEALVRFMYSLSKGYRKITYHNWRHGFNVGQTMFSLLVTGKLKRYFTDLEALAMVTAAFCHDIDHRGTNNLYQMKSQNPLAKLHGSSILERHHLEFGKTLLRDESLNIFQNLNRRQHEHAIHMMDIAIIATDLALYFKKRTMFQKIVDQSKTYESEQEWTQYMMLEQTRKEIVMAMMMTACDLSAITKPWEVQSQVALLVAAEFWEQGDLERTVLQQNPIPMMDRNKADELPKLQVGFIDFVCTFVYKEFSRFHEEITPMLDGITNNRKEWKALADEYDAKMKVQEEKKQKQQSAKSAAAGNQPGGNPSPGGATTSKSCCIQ
smiles,measurement,setting,value
O=C(Nc1cccc2c(=O)cc(-c3nnn[nH]3)oc12)c1ccc(OCCCCc2ccccc2)cc1,AC50,[1],2.88 µM
same,AC50,[2],13.3 µM
CC(/C=C1\SC(=S)N(CC(=O)O)C1=O)=C\c1ccccc1,AC50,[3],4 µM
same,AC50,[4],> 30 µM
same,AC50,[5],> 30 µM
same,AC50,[6],3.6 µM
CC1(C)S[C@@H]2[C@H](NC(=O)[C@H](N)c3ccc(O)cc3)C(=O)N2[C@H]1C(=O)O [AMOXICILLIN],AC50,[3],> 30 µM
same,AC50,[7],> 30 µM
same,AC50,[8],> 10 µM
same,AC50,[9],> 10 µM
same,AC50,[10],> 10 µM
same,AC50,[5],4.1 µM
same,AC50,[6],15 µM
O=C1CN2Cc3c(ccc(Cl)c3Cl)N=C2N1 [ANAGRELIDE],AC50,[7],> 30 µM
CCc1oc2ccccc2c1C(=O)c1cc(Br)c(O)c(Br)c1 [BENZBROMARONE],AC50,[7],> 10 µM
[H]/N=C(\N/C(=N/[H])NCCCCCCNC(=N)NC(=N)Nc1ccc(Cl)cc1)Nc1ccc(Cl)cc1 [CHLORHEXIDINE],AC50,[7],> 30 µM
COC(=O)[C@H](c1ccccc1Cl)N1CCc2sccc2C1 [CLOPIDOGREL],AC50,[8],> 10 µM
same,AC50,[9],> 10 µM
same,AC50,[10],> 10 µM
CCC(=O)O[C@@H](O[P@](=O)(CCCCc1ccccc1)CC(=O)N1C[C@H](C2CCCCC2)C[C@H]1C(=O)O)C(C)C [FOSINOPRIL],AC50,[1],21.6 µM
same,AC50,[2],> 30 µM
Nc1nc(O)c2ncn(COC(CO)CO)c2n1 [GANCICLOVIR],AC50,[4],> 30 µM
Cc1cnc(NC(=O)C2=C(O)c3ccccc3S(=O)(=O)N2C)s1 [MELOXICAM],AC50,[8],> 10 µM
same,AC50,[9],> 10 µM
same,AC50,[10],> 10 µM
CN(C)c1cc(CNCC(C)(C)C)c(O)c2c1C[C@H]1C[C@H]3[C@H](N(C)C)C(O)=C(C(N)=O)C(=O)[C@@]3(O)C(O)=C1C2=O [OMADACYCLINE],AC50,[1],> 30 µM
same,AC50,[2],> 30 µM
CNC(=O)c1cc(Oc2ccc(NC(=O)Nc3ccc(Cl)c(C(F)(F)F)c3)c(F)c2)ccn1 [REGORAFENIB],AC50,[3],> 30 µM
same,AC50,[5],> 30 µM
same,AC50,[1],4.15 µM
same,AC50,[6],24 µM
same,AC50,[2],> 30 µM
CCOc1cc(CC(=O)N[C@@H](CC(C)C)c2ccccc2N2CCCCC2)ccc1C(=O)O [REPAGLINIDE],AC50,[3],27 µM
same,AC50,[5],> 30 µM
same,AC50,[6],5 µM
CC(C)N(CCCCOCC(=O)NS(C)(=O)=O)c1cnc(-c2ccccc2)c(-c2ccccc2)n1 [SELEXIPAG],AC50,[4],> 30 µM
CCCCNc1ccc(C(=O)OCCN(C)C)cc1 [TETRACAINE],AC50,[8],> 10 µM
same,AC50,[9],> 10 µM
same,AC50,[10],> 10 µM
CN1CCN(CCCN2c3ccccc3Sc3ccc(S(=O)(=O)N(C)C)cc32)CC1 [THIOPROPERAZINE],AC50,[1],> 30 µM
same,AC50,[2],0.003 µM
Cc1cc(CC(=O)O)n(C)c1C(=O)c1ccc(Cl)cc1 [ZOMEPIRAC],AC50,[4],> 30 µM

# Reference: ChEMBL document CHEMBL5291721, “A preclinical secondary pharmacology resource illuminates target-adverse drug reaction associations of marketed drugs” (Nat Commun, 2023)
